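The compound was tested at five concentrations on cells cultured in 96-well plates, with a 48-hour exposure period. GI50 = concentration required for 50% inhibition of growth. TGI: concentration producing complete growth inhibition.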
Key:
Experiment in all cases: NCI tumour cell line growth inhibition, 48 h
786-0 renal = tested on: 786-0 renal
A498 renal = tested on: A498 renal
A549 NSCLC = tested on: A549 NSCLC
ACHN renal = tested on: ACHN renal
BT-549 breast = tested on: BT-549 breast
CAKI-1 renal = tested on: CAKI-1 renal
CCRF-CEM leukemia = tested on: CCRF-CEM leukemia
COLO 205 colon = tested on: COLO 205 colon
DU-145 prostate = tested on: DU-145 prostate
EKVX NSCLC = tested on: EKVX NSCLC
HCC-2998 colon = tested on: HCC-2998 colon
HCT-116 colon = tested on: HCT-116 colon
HCT-15 colon = tested on: HCT-15 colon
HL-60(TB) leukemia = tested on: HL-60(TB) leukemia
HOP-62 NSCLC = tested on: HOP-62 NSCLC
HOP-92 NSCLC = tested on: HOP-92 NSCLC
HS 578T breast = tested on: HS 578T breast
HT29 colon = tested on: HT29 colon
IGROV1 ovarian = tested on: IGROV1 ovarian
K-562 leukemia = tested on: K-562 leukemia
KM12 colon = tested on: KM12 colon
LOX IMVI melanoma = tested on: LOX IMVI melanoma
M14 melanoma = tested on: M14 melanoma
MALME-3M melanoma = tested on: MALME-3M melanoma
MCF7 breast = tested on: MCF7 breast
MDA-MB-231 breast = tested on: MDA-MB-231 breast
MDA-MB-435 = tested on: MDA-MB-435
MDA-MB-468 breast = tested on: MDA-MB-468 breast
MOLT-4 leukemia = tested on: MOLT-4 leukemia
NCI-H226 lung = tested on: NCI-H226 lung
NCI-H23 lung = tested on: NCI-H23 lung
NCI-H460 lung = tested on: NCI-H460 lung
NCI-H522 lung = tested on: NCI-H522 lung
NCI/ADR-RES ovarian = tested on: NCI/ADR-RES ovarian
OVCAR-3 ovarian = tested on: OVCAR-3 ovarian
OVCAR-4 ovarian = tested on: OVCAR-4 ovarian
OVCAR-5 ovarian = tested on: OVCAR-5 ovarian
OVCAR-8 ovarian = tested on: OVCAR-8 ovarian
PC-3 prostate = tested on: PC-3 prostate
RPMI-8226 leukemia = tested on: RPMI-8226 leukemia
RXF 393 renal = tested on: RXF 393 renal
SF-268 CNS = tested on: SF-268 CNS
SF-295 CNS = tested on: SF-295 CNS
SF-539 CNS = tested on: SF-539 CNS
SK-MEL-2 melanoma = tested on: SK-MEL-2 melanoma
SK-MEL-28 melanoma = tested on: SK-MEL-28 melanoma
SK-MEL-5 melanoma = tested on: SK-MEL-5 melanoma
SK-OV-3 ovarian = tested on: SK-OV-3 ovarian
SN12C renal = tested on: SN12C renal
SNB-19 CNS = tested on: SNB-19 CNS
SNB-75 CNS = tested on: SNB-75 CNS
SR leukemia = tested on: SR leukemia
SW-620 colon = tested on: SW-620 colon
T-47D breast = tested on: T-47D breast
TK-10 renal = tested on: TK-10 renal
U251 CNS = tested on: U251 CNS
UACC-257 melanoma = tested on: UACC-257 melanoma
UACC-62 melanoma = tested on: UACC-62 melanoma
UO-31 renal = tested on: UO-31 renal

## OC(c1ccccc1)(c1ccccc1)C1CCN(c2ccc3nnc(Cl)n3n2)CC1
786-0 renal
  GI50: 25 µM
  TGI: 71.8 µM
A498 renal
  GI50: 16.8 µM
  TGI: 32.6 µM
A549 NSCLC
  GI50: 18 µM
  TGI: > 100 µM
ACHN renal
  GI50: 14.2 µM
  TGI: 44.8 µM
BT-549 breast
  GI50: 13.9 µM
  TGI: 29.8 µM
CAKI-1 renal
  GI50: 15.6 µM
  TGI: 81.3 µM
CCRF-CEM leukemia
  GI50: 12.8 µM
  TGI: > 100 µM
COLO 205 colon
  GI50: 18.3 µM
  TGI: 46.2 µM
DU-145 prostate
  GI50: 24 µM
  TGI: > 100 µM
EKVX NSCLC
  GI50: 15.5 µM
  TGI: 54.3 µM
HCC-2998 colon
  GI50: 15.5 µM
  TGI: 29.9 µM
HCT-116 colon
  GI50: 14.1 µM
  TGI: 39.1 µM
HCT-15 colon
  GI50: 15.7 µM
  TGI: 54.2 µM
HL-60(TB) leukemia
  GI50: 12.7 µM
  TGI: 42.9 µM
HOP-62 NSCLC
  GI50: 44 µM
  TGI: > 100 µM
HOP-92 NSCLC
  GI50: 10.8 µM
  TGI: 29 µM
HS 578T breast
  GI50: 22 µM
  TGI: 53.2 µM
HT29 colon
  GI50: 16.9 µM
  TGI: 36.4 µM
IGROV1 ovarian
  GI50: 16.4 µM
  TGI: 41.9 µM
K-562 leukemia
  GI50: 14 µM
  TGI: > 100 µM
KM12 colon
  GI50: 16.2 µM
  TGI: 42.5 µM
LOX IMVI melanoma
  GI50: 15.3 µM
  TGI: 29 µM
M14 melanoma
  GI50: 17.4 µM
  TGI: 34.9 µM
MALME-3M melanoma
  GI50: 19.5 µM
  TGI: 33.9 µM
MCF7 breast
  GI50: 16.2 µM
  TGI: 44.2 µM
MDA-MB-231 breast
  GI50: 15.4 µM
  TGI: 30.4 µM
MDA-MB-435
  GI50: 19.5 µM
  TGI: 43.3 µM
MDA-MB-468 breast
  GI50: 13 µM
  TGI: 35.4 µM
MOLT-4 leukemia
  GI50: 4.18 µM
  TGI: 31.6 µM
NCI-H226 lung
  GI50: 14.5 µM
  TGI: 38.9 µM
NCI-H23 lung
  GI50: 16.8 µM
  TGI: 37.3 µM
NCI-H460 lung
  GI50: 14.1 µM
  TGI: 32.6 µM
NCI-H522 lung
  GI50: 15.6 µM
  TGI: 49.1 µM
NCI/ADR-RES ovarian
  GI50: 18 µM
  TGI: 63.3 µM
OVCAR-3 ovarian
  GI50: 21.1 µM
  TGI: 65.7 µM
OVCAR-4 ovarian
  GI50: 23.2 µM
  TGI: > 100 µM
OVCAR-5 ovarian
  GI50: 17.5 µM
  TGI: 45.2 µM
OVCAR-8 ovarian
  GI50: 25.7 µM
  TGI: 76.9 µM
PC-3 prostate
  GI50: 8.75 µM
  TGI: 62.2 µM
RPMI-8226 leukemia
  GI50: 9.29 µM
  TGI: 50.8 µM
RXF 393 renal
  GI50: 14.5 µM
  TGI: 29.4 µM
SF-268 CNS
  GI50: 26.3 µM
  TGI: > 100 µM
SF-295 CNS
  GI50: 17 µM
  TGI: 54.1 µM
SF-539 CNS
  GI50: 17.2 µM
  TGI: 38.7 µM
SK-MEL-2 melanoma
  GI50: 16.5 µM
  TGI: 32.8 µM
SK-MEL-28 melanoma
  GI50: 18.3 µM
  TGI: 43 µM
SK-MEL-5 melanoma
  GI50: 13.7 µM
  TGI: 26.6 µM
SK-OV-3 ovarian
  GI50: 42.1 µM
  TGI: > 100 µM
SN12C renal
  GI50: 17.5 µM
  TGI: 40 µM
SNB-19 CNS
  GI50: 36.3 µM
  TGI: > 100 µM
SNB-75 CNS
  GI50: 14.6 µM
  TGI: 36.9 µM
SR leukemia
  GI50: 10.9 µM
  TGI: 47.5 µM
SW-620 colon
  GI50: 25 µM
  TGI: 67.8 µM
T-47D breast
  GI50: 20.6 µM
  TGI: > 100 µM
TK-10 renal
  GI50: 22.9 µM
  TGI: 62.5 µM
U251 CNS
  GI50: 18 µM
  TGI: 39.6 µM
UACC-257 melanoma
  GI50: 18.5 µM
  TGI: 37.9 µM
UACC-62 melanoma
  GI50: 14.6 µM
  TGI: 30.4 µM
UO-31 renal
  GI50: 11 µM
  TGI: 29.1 µM
